In PMC9102781 (Molecules, 2022):

target: T1, Acetylcholinesterase (AChE) (Electrophorus electricus, UniProt O42275); assay: In vitro anti-acetylcholinesterase assay (Ellman's method); type: biochemical; conditions: read-out: AChE Inhibition (IC50)
T1 construct: purchased Sigma Aldrich type VI-S
Source text: In vitro enzyme assay reagents were purchased as previously described. Acetylcholinesterase (AChE) from Electrophorus electricus type VI-S lyophilized powder (137 units/mg) was acquired from Sigma Aldrich (St. Louis, MO, USA). Substrate acetylthiocholine iodide (ATCl) and sodium phosphate monobasic and dibasic anhydrous used for buffer preparation were obtained from Wako Pure Chemical (Osaka, Japan). Coloring reagent 5,5′-dithio-bis-(2-nitrobenzoic acid) (DTNB) was acquired from Nacalai Tesque (Kyoto, Japan). […] All other reagents acquired from commercial sources were of analytical grade.
The plant fractions and isolated compounds were evaluated for their anti-AChE potential in triplicate based on the Ellman’s method described previously.

T1 sequence (O42275 24-633): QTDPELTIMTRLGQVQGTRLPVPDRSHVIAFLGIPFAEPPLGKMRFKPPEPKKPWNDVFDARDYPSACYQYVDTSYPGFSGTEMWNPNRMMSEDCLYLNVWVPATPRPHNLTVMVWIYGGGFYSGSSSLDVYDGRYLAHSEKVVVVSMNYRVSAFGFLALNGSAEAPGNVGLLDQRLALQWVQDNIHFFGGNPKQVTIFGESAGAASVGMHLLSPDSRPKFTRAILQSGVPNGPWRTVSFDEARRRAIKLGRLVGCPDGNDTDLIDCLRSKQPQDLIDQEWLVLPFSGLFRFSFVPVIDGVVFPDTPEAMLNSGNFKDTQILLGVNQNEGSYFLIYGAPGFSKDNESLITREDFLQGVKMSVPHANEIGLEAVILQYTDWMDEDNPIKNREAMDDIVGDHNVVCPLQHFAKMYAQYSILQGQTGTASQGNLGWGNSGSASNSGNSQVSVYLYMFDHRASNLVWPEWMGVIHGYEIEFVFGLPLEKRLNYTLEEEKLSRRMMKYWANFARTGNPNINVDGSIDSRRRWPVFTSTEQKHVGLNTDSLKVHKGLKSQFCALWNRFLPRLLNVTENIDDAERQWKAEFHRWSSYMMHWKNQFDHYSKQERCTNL

SMILES | IC50
CC(C)=CCC/C(C)=C/Cc1c(C2CC(=O)c3c(O)cc(O)c(CC=C(C)C)c3O2)ccc(O)c1O (centres unmarked) [Compound 1, solophenol A] | 1000 nM
CCCC/C=C\C/C=C\CCCCCCCCc1cccc(O)c1C(=O)O [Compound 5, 6-heptadeca-9Z,12Z-dienyl salicylic acid] | 540 nM
CC/C=C\C/C=C\C/C=C\CCCCCCCc1cccc(O)c1C(=O)O [Compound 4, 6-heptadeca-8Z,11Z,14Z-trienyl salicylic acid] | 2400 nM
CC(C)=CCCC(C)=CCc1c(O)cc2c(c1O)C(=O)CC(c1cc(O)cc(O)c1)O2 (centres unmarked) [Compound 3, schizolaenone C] | 6800 nM
CC(C)=CCC/C(C)=C/Cc1c([C@@H]2CC(=O)c3c(O)cc(O)cc3O2)ccc(O)c1O [Compound 2, nymphaeol B] | 33000 nM
